According to patent US20050075375A1 (priority 2003, published 2005):
Where two headings read alike, the source gives them in different places.

System: monocistronic NK5.1 HCV replicon in Huh7 cells
Assay: HCV replicon assay, monocistronic replicon cell line
Format: cell-based, hepatitis C virus
Settings: Hepatitis C virus, Huh-7, 72 h, read-out: Mono EC50 Median
In short: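 Huh7 cells carrying the monocistronic NK5.1 replicon, seeded 24 h before dosing, were exposed to six-point half-log compound series (0.6% DMSO) for 3 days at 37 °C. Replicon RNA was quantified by TaqMan RT-PCR, normalised to GAPDH and compared with DMSO controls to derive EC50.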

[1] = Table 1, monocistronic replicon in Huh7 cells, 3 days incubation, HCV RNA/GAPDH RNA by TaqMan RT-PCR

## COc1ccc(O)c(-c2cc(-c3ncccc3C)on2)c1 [Compound 132, 4-Methoxy-2-[5-(3-methyl-pyridin-2-yl)-isoxazol-3-yl]-phenol]
[1]
  EC50: 2 µM

## Oc1ccccc1-c1nc(-c2ccccn2)no1 [Compound 133, 2-(3-Pyridin-2-yl-[1,2,4]oxadiazol-5-yl)-phenol]
[1]
  EC50: > 19 µM

## Oc1ccc2ccccc2c1-c1nc(-c2ccccn2)no1 [Compound 134, 1-(3-Pyridin-2-yl-[1,2,4]oxadiazol-5-yl)-naphthalen-2-ol]
[1]
  EC50: 17 µM

## Oc1ccc2ccccc2c1-c1nc(-c2ccccc2)no1 [Compound 135, 1-(3-Phenyl-[1,2,4]oxadiazol-5-yl)-naphthalen-2-ol]
[1]
  EC50: > 32 µM

## Oc1ccc2ccccc2c1-c1nc(-c2cc(C(F)(F)F)ccc2F)no1 [Compound 136, 1-[3-(2-Fluoro-5-trifluoromethyl-phenyl)-[1,2,4]oxadiazol-5-yl]-naphthalen-2-ol]
[1]
  EC50: > 32 µM

## O=[N+]([O-])c1cccnc1-c1noc(-c2c(O)ccc3ccccc23)n1 [Compound 137, 1-[3-(3-Nitro-pyridin-2-yl)-[1,2,4]oxadiazol-5-yl]-naphthalen-2-ol]
[1]
  EC50: 1.8 µM

## COc1cccc(-c2nc(-c3ncccc3C(F)(F)F)no2)c1 [Compound 138, 2-[5-(3-Methoxy-phenyl)-[1,2,4]oxadiazol-3-yl]-3-trifluoromethyl-pyridine]
[1]
  EC50: > 19 µM

## COc1cccc(-c2nc(-c3ccccn3)no2)c1 [Compound 139, 2-[5-(3-Methoxy-phenyl)-[1,2,4]oxadiazol-3-yl]-pyridine]
[1]
  EC50: 18 µM

## c1ccc(-c2noc(-c3cccc4ccccc34)n2)nc1 [Compound 140, 2-(5-Naphthalen-1-yl-[1,2,4]oxadiazol-3-yl)-pyridine]
[1]
  EC50: 7.1 µM

## O=[N+]([O-])c1ccc(-c2nc(-c3ccccn3)no2)c(Cl)c1 [Compound 141, 2-[5-(2-Chloro-4-nitro-phenyl)-[1,2,4]oxadiazol-3-yl]-pyridine]
[1]
  EC50: 10 µM

## COc1ccc(OC)c(-c2nc(-c3ccccn3)no2)c1 [Compound 142, 2-[5-(2,5-Dimethoxy-phenyl)-[1,2,4]oxadiazol-3-yl]-pyridine]
[1]
  EC50: 20 µM

## COc1ccc2ccccc2c1-c1nc(-c2ccccn2)no1 [Compound 143, 2-[5-(2-Methoxy-naphthalen-1-yl)-[1,2,4]oxadiazol-3-yl]-pyridine]
[1]
  EC50: 13 µM

## Oc1ccc(Br)cc1-c1nc(-c2ccccn2)no1 [Compound 144, 4-Bromo-2-(3-pyridin-2-yl-[1,2,4]oxadiazol-5-yl)-phenol]
[1]
  EC50: 3.7 µM

## Oc1ccc(Cl)cc1-c1nc(-c2ccccn2)no1 [Compound 145, 4-Chloro-2-(3-pyridin-2-yl-[1,2,4]oxadiazol-5-yl)-phenol]
[1]
  EC50: 2.3 µM

## O=[N+]([O-])c1ccc(O)c(-c2nc(-c3ccccn3)no2)c1 [Compound 146, 4-Nitro-2-(3-pyridin-2-yl-[1,2,4]oxadiazol-5-yl)-phenol]
[1]
  EC50: > 32 µM

## COc1ccc(O)c(-c2nc(-c3ccccn3)no2)c1 [Compound 147, 4-Methoxy-2-(3-pyridin-2-yl-[1,2,4]oxadiazol-5-yl)-phenol]
[1]
  EC50: 4.4 µM

## O=[N+]([O-])c1cccc(-c2nc(-c3ccccn3)no2)c1 [Compound 148, 2-[5-(3-Nitro-phenyl)-[1,2,4]oxadiazol-3-yl]-pyridine]
[1]
  EC50: > 19 µM

## O=[N+]([O-])c1ccc(F)c(-c2nc(-c3ccccn3)no2)c1 [Compound 149]
[1]
  EC50: 4.1 µM

## Oc1ccc(O)c(-c2nc(-c3ccccn3)no2)c1 [Compound 150, 2-(3-Pyridin-2-yl-[1,2,4]oxadiazol-5-yl)-benzene-1,4-diol]
[1]
  EC50: 16 µM

## COc1cccc(-c2nc(-c3ccccn3)no2)c1O [Compound 151, 2-Methoxy-6-(3-pyridin-2-yl-[1,2,4]oxadiazol-5-yl)-phenol]
[1]
  EC50: 18 µM

## COc1ccc(-c2nc(-c3ccccn3)no2)c(O)c1 [Compound 152, 5-Methoxy-2-(3-pyridin-2-yl-[1,2,4]oxadiazol-5-yl)-phenol]
[1]
  EC50: 5.6 µM

## FC(F)(F)c1cccnc1-c1noc(-c2cccc3ccccc23)n1 [Compound 153, 2-(5-Naphthalen-1-yl-[1,2,4]oxadiazol-3-yl)-3-trifluoromethyl-pyridine]
[1]
  EC50: 7.9 µM

## O=[N+]([O-])c1cccnc1-c1noc(-c2cc(Cl)ccc2O)n1 [Compound 154, 4-Chloro-2-[3-(3-nitro-pyridin-2-yl)-[1,2,4]oxadiazol-5-yl]-phenol]
[1]
  EC50: > 19 µM

## O=[N+]([O-])c1cccnc1-c1noc(-c2cc(Br)ccc2O)n1 [Compound 155, 4-Bromo-2-[3-(3-nitro-pyridin-2-yl)-[1,2,4]oxadiazol-5-yl]-phenol]
[1]
  EC50: > 19 µM

## O=[N+]([O-])c1cccc(-c2nc(-c3ncccc3[N+](=O)[O-])no2)c1 [Compound 156, 3-Nitro-2-[5-(3-nitro-phenyl)-[1,2,4]oxadiazol-3-yl]-pyridine]
  EC50: > 19 µM

## O=[N+]([O-])c1cccnc1-c1noc(-c2cccc3ccccc23)n1 [Compound 157, 2-(5-Naphthalen-1-yl-[1,2,4]oxadiazol-3-yl)-3-nitro-pyridine]
[1]
  EC50: 4.7 µM

## O=[N+]([O-])c1ccc(O)c(-c2nc(-c3ncccc3[N+](=O)[O-])no2)c1 [Compound 158, 4-Nitro-2-[3-(3-nitro-pyridin-2-yl)-[1,2,4]oxadiazol-5-yl]-phenol]
  EC50: 11 µM

## COc1ccc(OC)c(-c2nc(-c3ncccc3[N+](=O)[O-])no2)c1 [Compound 159]
[1]
  EC50: 16 µM

## COc1ccc(O)c(-c2nc(-c3ncccc3[N+](=O)[O-])no2)c1 [Compound 160, 4-Methoxy-2-[3-(3-nitro-pyridin-2-yl)-[1,2,4]oxadiazol-5-yl]-phenol]
[1]
  EC50: > 19 µM

## O=[N+]([O-])c1cccnc1-c1noc(-c2ccccc2O)n1 [Compound 161, 2-[3-(3-Nitro-pyridin-2-yl)-[1,2,4]oxadiazol-5-yl]-phenol]
[1]
  EC50: > 19 µM

## O=[N+]([O-])c1cccnc1-c1noc(-c2cc(F)ccc2O)n1 [Compound 162, 4-Fluoro-2-[3-(3-nitro-pyridin-2-yl)-[1,2,4]oxadiazol-5-yl]-phenol]
[1]
  EC50: 17 µM

## CN(C)c1ccc(-c2nc(-c3ccccn3)no2)c(O)c1 [Compound 163, 5-Dimethylamino-2-(3-pyridin-2-yl-[1,2,4]oxadiazol-5-yl)-phenol]
[1]
  EC50: 1.5 µM

## Oc1ccc(F)cc1-c1nc(-c2ccccn2)no1 [Compound 164, 4-Fluoro-2-(3-pyridin-2-yl-[1,2,4]oxadiazol-5-yl)-phenol]
[1]
  EC50: 9 µM

## COc1cccc(-c2nc(-c3ncccc3[N+](=O)[O-])no2)c1 [Compound 165, 2-[5-(3-Methoxy-phenyl)-[1,2,4]oxadiazol-3-yl]-3-nitro-pyridine]
[1]
  EC50: 18 µM

## COc1cccc(-c2nc(-c3ncccc3[N+](=O)[O-])no2)c1O [Compound 166, 2-Methoxy-6-[3-(3-nitro-pyridin-2-yl)-[1,2,4]oxadiazol-5-yl]-phenol]
[1]
  EC50: > 19 µM

## O=[N+]([O-])c1ccc(-c2nc(-c3ncccc3[N+](=O)[O-])no2)c(Cl)c1 [Compound 167, 2-[5-(2-Chloro-4-nitro-phenyl)-[1,2,4]oxadiazol-3-yl]-3-nitro-pyridine]
  EC50: 12 µM

## O=[N+]([O-])c1ccc(F)c(-c2nc(-c3ncccc3[N+](=O)[O-])no2)c1 [Compound 168, 2-[5-(2-Fluoro-5-nitro-phenyl)-[1,2,4]oxadiazol-3-yl]-3-nitro-pyridine]
  EC50: 4.6 µM

## COc1ccc2ccccc2c1-c1nc(-c2ncccc2[N+](=O)[O-])no1 [Compound 169]
[1]
  EC50: > 19 µM

## COc1ccc(-c2nc(-c3ncccc3[N+](=O)[O-])no2)c(O)c1 [Compound 170, 5-Methoxy-2-[3-(3-nitro-pyridin-2-yl)-[1,2,4]oxadiazol-5-yl]-phenol]
[1]
  EC50: 12 µM

## O=[N+]([O-])c1cccnc1-c1noc(-c2cc(O)ccc2O)n1 [Compound 171, 2-[3-(3-Nitro-pyridin-2-yl)-[1,2,4]oxadiazol-5-yl]-benzene-1,4-diol]
[1]
  EC50: 5.4 µM

## Cc1ccc(O)c(-c2nc(-c3ccccn3)no2)c1 [Compound 172, 4-Methyl-2-(3-pyridin-2-yl-[1,2,4]oxadiazol-5-yl)-phenol]
[1]
  EC50: 6 µM

## O=[N+]([O-])c1ccc(Cl)c(-c2nc(-c3ccccn3)no2)c1 [Compound 173, 2-[5-(2-Chloro-5-nitro-phenyl)-[1,2,4]oxadiazol-3-yl]-pyridine]
[1]
  EC50: 3.8 µM

## Cc1ccc(O)c(-c2nc(-c3ncccc3[N+](=O)[O-])no2)c1 [Compound 174, 4-Methyl-2-[3-(3-nitro-pyridin-2-yl)-[1,2,4]oxadiazol-5-yl]-phenol]
[1]
  EC50: 10 µM

## COc1ccc(-c2nc(-c3ncccc3C)no2)c(O)c1 [Compound 175, 5-Methoxy-2-[3-(3-methyl-pyridin-2-yl)-[1,2,4]oxadiazol-5-yl]-phenol]
[1]
  EC50: 0.5 µM

## COc1cccc(-c2nc(-c3ncccc3C)no2)c1 [Compound 176, 2-[5-(3-Methoxy-phenyl)-[1,2,4]oxadiazol-3-yl]-3-methyl-pyridine]
[1]
  EC50: 13 µM

## Cc1cccnc1-c1noc(-c2cccc3ccccc23)n1 [Compound 177, 3-Methyl-2-(5-naphthalen-1-yl-[1,2,4]oxadiazol-3-yl)-pyridine]
[1]
  EC50: 7.2 µM

## COc1ccc(OC)c(-c2nc(-c3ncccc3C)no2)c1 [Compound 178, 2-[5-(2,5-Dimethoxy-phenyl)-[1,2,4]oxadiazol-3-yl]-3-methyl-pyridine]
[1]
  EC50: > 32 µM

## Cc1cccnc1-c1noc(-c2cc(O)ccc2O)n1 [Compound 179, 2-[3-(3-Methyl-pyridin-2-yl)-[1,2,4]oxadiazol-5-yl]-benzene-1,4-diol]
[1]
  EC50: 1.3 µM

## Cc1cccnc1-c1noc(-c2ccc(N(C)C)cc2O)n1 [Compound 180]
[1]
  EC50: 2.1 µM

## Cc1cccnc1-c1noc(-c2cccc([N+](=O)[O-])c2)n1 [Compound 181]
[1]
  EC50: > 32 µM
